We go through 21 molecules from PubChem BioAssay AID248 (DTP/NCI, 2004).

Values joined by “and” are separate entries in the source; they are usually repeats but may differ in a detail not shown here. Equal entries are not always repeated. Inconclusive results and toxic doses are left out.

The assay relates to L1210 leukemia ip in BDF1 mice, survival T/C. The assay is described as follows: NCI In Vivo Anticancer Drug Screen. Data for tumor model L1210 Leukemia (intraperitoneal) in B6D2F1 (BDF1) mice. The conditions noted are these: endpoint: mean survival time, higher = longer survival. The method, boiled down: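 In this screen, tumor-bearing mice given compound are compared to those given vehicle, and their survival values are reported as a treated-to-control quotient.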

The mark [1] stands for this setting: dose: 100.0 mg/kg/injection, schedule: Q01DX009 (ip), vehicle: saline.
Setting [2] is: dose: 100.0 mg/kg/injection, schedule: Q04DX003 (ip), vehicle: saline.
[3] abbreviates: dose: 200.0 mg/kg/injection, schedule: Q01DX009 (ip), vehicle: saline.
Where [4] appears, read: dose: 200.0 mg/kg/injection, schedule: Q04DX003 (ip), vehicle: saline.
Where [5] appears, read: dose: 400.0 mg/kg/injection, schedule: Q04DX003 (ip), vehicle: saline.
Setting [6] is: dose: 100.0 mg/kg/injection, schedule: Q04DX003 (ip), vehicle: saline with Tween-80.
[7] abbreviates: dose: 200.0 mg/kg/injection, schedule: Q04DX003 (ip), vehicle: saline with Tween-80.
Setting [8] is: dose: 400.0 mg/kg/injection, schedule: Q04DX003 (ip), vehicle: saline with Tween-80.
Setting [9] is: dose: 100.0 mg/kg/injection, schedule: Q01DX009 (ip), vehicle: Klucel (hydroxypropylcellulose) (HPC).
Where [10] appears, read: dose: 100.0 mg/kg/injection, schedule: Q01DX009 (ip), vehicle: saline with Tween-80.
The mark [11] stands for this setting: dose: 100.0 mg/kg/injection, schedule: Q04DX003 (ip), vehicle: Klucel (hydroxypropylcellulose) (HPC).
The mark [12] stands for this setting: dose: 200.0 mg/kg/injection, schedule: Q01DX009 (ip), vehicle: Klucel (hydroxypropylcellulose) (HPC).
[13] abbreviates: dose: 200.0 mg/kg/injection, schedule: Q01DX009 (ip), vehicle: saline with Tween-80.
The mark [14] stands for this setting: dose: 200.0 mg/kg/injection, schedule: Q04DX003 (ip), vehicle: Klucel (hydroxypropylcellulose) (HPC).
[15] abbreviates: dose: 400.0 mg/kg/injection, schedule: Q01DX009 (ip), vehicle: Klucel (hydroxypropylcellulose) (HPC).
The mark [16] stands for this setting: dose: 400.0 mg/kg/injection, schedule: Q01DX009 (ip), vehicle: saline with Tween-80.
The mark [17] stands for this setting: dose: 400.0 mg/kg/injection, schedule: Q04DX003 (ip), vehicle: Klucel (hydroxypropylcellulose) (HPC).
The mark [18] stands for this setting: dose: 100.0 mg/kg/injection, schedule: Q01DX001 (ip), vehicle: saline.
Where [19] appears, read: dose: 200.0 mg/kg/injection, schedule: Q01DX001 (ip), vehicle: saline.
The mark [20] stands for this setting: dose: 400.0 mg/kg/injection, schedule: Q01DX001 (ip), vehicle: saline.

As for `CN1CCCC(=O)NC1=O`, the T/C by setting is: under setting [1], 96 % of control; under setting [2], 104 % of control; under setting [3], 97 % of control; under setting [4], 98 % of control; (dose: 400.0 mg/kg/injection, schedule: Q01DX009 (ip), vehicle: saline) 102 % of control; under setting [5], 95 % of control.

For the molecule `CCOC(=O)C(C(C)=O)C(c1ccccc1)C(C(C)=O)C(=O)OCC` (stereo not drawn), the T/C was 97 % of control (dose: 25.6 mg/kg/injection, schedule: Q04DX002 (ip), vehicle: saline with Tween-80); 104 % of control (dose: 64.0 mg/kg/injection, schedule: Q04DX002 (ip), vehicle: saline with Tween-80); 101 % of control under setting [6]; 112 % of control (dose: 160.0 mg/kg/injection, schedule: Q04DX002 (ip), vehicle: saline with Tween-80); 98 % of control under setting [7]; 104 % of control (dose: 400.0 mg/kg/injection, schedule: Q04DX002 (ip), vehicle: saline with Tween-80). For the same molecule, the T/C under setting [8] was 93 % of control.

Regarding `O=C(/C=C/c1ccccc1O)c1ccccc1`, the T/C under setting [9] was 98 % of control; the T/C under setting [10] is 110 % of control; the T/C under setting [11] was 113 % of control; the T/C under setting [6] is 94 % of control; the T/C under setting [12] is 100 % of control; the T/C under setting [13] is 101 % of control. Also, the T/C runs as follows: under setting [14], 113 % of control; under setting [7], 102 % of control; under setting [15], 90 % of control; under setting [16], 102 % of control; under setting [17], 103 % of control; under setting [8], 96 % of control.

In the case of `COc1ccc2c(c1)-c1c(O)c(OC)cc3c1C(C2)N(C)CC3` (stereo not drawn), the T/C by setting is: (dose: 75.0 mg/kg/injection, schedule: Q01DX001 (ip), vehicle: saline) 94 % of control; (dose: 150.0 mg/kg/injection, schedule: Q01DX001 (ip), vehicle: saline) 98 % of control; (dose: 300.0 mg/kg/injection, schedule: Q01DX001 (ip), vehicle: saline) 100 % of control.

On to `COC1CC2C=CC1C2` (stereo not drawn), for which the T/C reads like this: (dose: 50.0 mg/kg/injection, schedule: Q01DX009 (ip), vehicle: saline with Tween-80) 92 % of control; under setting [10], 89 % of control; under setting [13], 92 % of control.

As to `O=C1CC2=C(CC(O)=CC=C2)C(=O)O1`, the T/C by setting is: under setting [2], 104 % of control; under setting [4], 100 % of control; under setting [5], 93 % of control.

`S=c1[nH]ccs1`: the T/C is, setting by setting: (dose: 25.0 mg/kg/injection, schedule: Q01DX001 (ip), vehicle: saline) 100 % of control; (dose: 50.0 mg/kg/injection, schedule: Q01DX001 (ip), vehicle: saline) 98 % of control; under setting [18], 98 % of control and 99 % of control.

For `CC[n+]1cccc(NC(=O)c2ccc(NC(=O)c3ccc(C(=O)Nc4ccc(C(=O)Nc5ccc[n+](CC)c5)cc4)cc3)cc2)c1`, the T/C is 110 % of control (dose: 0.25 mg/kg/injection, schedule: Q01DX009 (ip), vehicle: saline); 115 % of control and 117 % of control (dose: 4.0 mg/kg/injection, schedule: Q01DX001 (ip), vehicle: saline); 157 % of control and 160 % of control (dose: 4.0 mg/kg/injection, schedule: Q01DX009 (ip), vehicle: saline); 120 % of control (dose: 4.4 mg/kg/injection, schedule: Q01DX Z (ip), vehicle: carboxymethylcellulose (CMC)); 92 % of control (dose: 6.7 mg/kg/injection, schedule: Q01DX Z (ip), vehicle: carboxymethylcellulose (CMC)); 228 % of control (dose: 8.0 mg/kg/injection, schedule: Q01DX009 (ip), vehicle: saline). Also, the T/C is 121 % of control and 124 % of control (dose: 16.0 mg/kg/injection, schedule: Q01DX009 (ip), vehicle: saline); 189 % of control (dose: 32.0 mg/kg/injection, schedule: Q01DX001 (ip), vehicle: saline); 229 % of control (dose: 64.0 mg/kg/injection, schedule: Q01DX001 (ip), vehicle: saline).

Take `CC12CCC(=O)C=C1CCC1C2C(O)CC2(C)C1CCC2(O)C(=O)CSc1ncnc2nc[nH]c12` (stereo not drawn): the T/C is 96 % of control (dose: 50.0 mg/kg/injection, schedule: Q01DX001 (sc), vehicle: steriod suspending solution); 94 % of control and 108 % of control (dose: 100.0 mg/kg/injection, schedule: Q01DX001 (sc), vehicle: steriod suspending solution); 105 % of control and 108 % of control (dose: 200.0 mg/kg/injection, schedule: Q01DX001 (sc), vehicle: steriod suspending solution); 97 % of control and 102 % of control (dose: 400.0 mg/kg/injection, schedule: Q01DX001 (sc), vehicle: steriod suspending solution).

Consider `Cc1ccc(C(C)C)c2cc(C=O)c(O)cc12`, for which the T/C (dose: 100.0 mg/kg/injection, schedule: Q01DX001 (sc), vehicle: olive oil, sesame oil, peanut oil) was 95 % of control; the T/C (dose: 200.0 mg/kg/injection, schedule: Q01DX001 (sc), vehicle: olive oil, sesame oil, peanut oil) is 109 % of control; the T/C (dose: 400.0 mg/kg/injection, schedule: Q01DX001 (sc), vehicle: olive oil, sesame oil, peanut oil) is 101 % of control.

As to `Cc1ccc(-c2nn3c(-c4ccccc4)nnc3o2)cc1`, the T/C by setting is: under setting [10], 97 % of control; under setting [13], 94 % of control; under setting [16], 102 % of control.

Turning to `CSc1ncnc2c1ncn2N(CCCCN=C=S)C(C)=O`, the T/C runs as follows: (dose: 12.5 mg/kg/injection, schedule: Q01DX001 (ip), vehicle: saline with Tween-80) 107 % of control; (dose: 25.0 mg/kg/injection, schedule: Q01DX001 (ip), vehicle: saline with Tween-80) 98 % of control; (dose: 50.0 mg/kg/injection, schedule: Q01DX001 (ip), vehicle: saline with Tween-80) 103 % of control.

For the molecule `NCCc1ccc(N)cc1`, the T/C is, setting by setting: under setting [18], 106 % of control and 92 % of control; under setting [2], 95 % of control; under setting [19], 106 % of control and 89 % of control; under setting [4], 98 % of control; under setting [20], 97 % of control and 92 % of control; under setting [5], 101 % of control.

`CCCCCCCCNC(C(=O)c1ccc(Cl)cc1)c1ccc(Cl)cc1` (stereo not drawn): the T/C is 92 % of control (dose: 50.0 mg/kg/injection, schedule: Q01DX009 (ip), vehicle: saline); 91 % of control under setting [1]; 98 % of control under setting [2]; 97 % of control under setting [3]; 102 % of control under setting [4]; 90 % of control under setting [5].

As to `O=c1n(-c2ccccc2)c(=O)n(-c2ccccc2)c(=O)n1-c1ccccc1`, the T/C by setting is: under setting [18], 107 % of control; under setting [11], 89 % of control; under setting [19], 102 % of control; under setting [14], 94 % of control; under setting [20], 115 % of control; under setting [17], 104 % of control.

For the molecule `O=C1Nc2ccccc2CS1`, the T/C under setting [18] was 100 % of control, the T/C under setting [19] was 97 % of control and the T/C under setting [20] was 94 % of control.

Turning to `c1ccc(-c2cnoc2-c2ccccc2)cc1`, the T/C runs as follows: under setting [9], 107 % of control; under setting [11], 111 % of control; under setting [12], 106 % of control; under setting [14], 95 % of control; under setting [15], 102 % of control; under setting [17], 101 % of control.

Turning to `O=[N+]([O-])c1cc(Br)c(N2CCCC2)cc1N1CCCC1`, the T/C is 106 % of control under setting [9]; 104 % of control under setting [11]; 106 % of control under setting [12]; 93 % of control under setting [14]; 98 % of control under setting [15]; 88 % of control under setting [17].

On to `N#CC1(Cc2ccccc2)c2ccccc2-c2ccccc21`, for which the T/C was 98 % of control under setting [11], 89 % of control under setting [14] and 91 % of control under setting [17].

For the molecule `Cc1nc(C)c([N+](=O)[O-])s1`, the T/C under setting [9] is 93 % of control; the T/C under setting [11] is 100 % of control; the T/C under setting [12] was 94 % of control; the T/C under setting [14] is 96 % of control; the T/C under setting [15] was 101 % of control; the T/C under setting [17] was 100 % of control.

Regarding `Cc1ncc(CO)c(Cc2ccccc2N(C)C)c1O`, the T/C runs as follows: (dose: 100.0 mg/kg/injection, schedule: Q04DX002 (ip), vehicle: saline with Tween-80) 92 % of control; (dose: 200.0 mg/kg/injection, schedule: Q04DX002 (ip), vehicle: saline with Tween-80) 95 % of control.
